Laboratory results: patent US10849897B2, “Pyridyl derivatives as bromodomain inhibitors” (GLAXOSMITHKLINE INTELLECTUAL PROPERTY (NO.2) LIMITED, priority 2017, dated 2020)

Experiments:
BRD4 BD2 = target: T1, BRD4 BD2 (Homo sapiens, UniProt O60885, Y97A); assay: BRD4 BD2 TR-FRET competition assay; type: binding; settings: TR-FRET competition with Reference Compound X; read-out: pIC50 in the BRD4 BD2 assay (converted)
T1 construct: BRD4 (1-477) (Y97A) and (Y390A); made in house; host or cells: E. coli (pET15b vector)
Description: (§1) Bromodomain binding was assessed utilising a time resolved fluorescent resonance energy transfer (TR-FRET) competition assay. To enable this approach a known, high affinity, pan-BET interacting small molecule was labelled with Alexa Fluor® 647, which is a far-red-fluorescent dye (Reference Compound X). Reference Compound X acts as a reporter of bromodomain binding and is the acceptor fluorophore component of the TR-FRET pair. Europium chelate, conjugated to an anti-6*His antibody, was utilised as the donor fluorophore in the TR-FRET pair. The anti-6*His antibody binds selectively to a six Histidine purification epitope added to the amino-terminus of each of the BET tandem bromodomain protein constructs used in this study. A TR-FRET signal is generated when the donor and acceptor fluorophores are in close proximity, between 20-80 Å, which is enabled in this assay by binding of Reference Compound X to the bromodomain protein.
(§2) In order to generate a TR-FRET signal, donor fluorophore is excited by a laser at λ337 nm, which subsequently leads to emission at λ618 nm. If the acceptor fluorophore is in close proximity then energy transfer can occur, which leads to emission of Alexa Fluor® 647 at λ665 nm. In the presence of competitor compound, Reference Compound X can be displaced from binding to the bromodomain. If displacement occurs, the acceptor fluorophore is no longer in proximity to the donor fluorophore, which prevents fluorescent energy transfer and, subsequently, a loss of Alexa Fluor® 647 emission at λ665 nm.
(§3) The competition of the compounds of formula (I) with Reference Compound X for binding to the BET family (BRD2, BRD3, BRD4 and BRDT) was assessed using protein truncates spanning both bromodomain 1 (BD1) and bromodomain 2 (BD2). In order to monitor differential binding to either BD1 or BD2, single residue mutations of key tyrosines to alanine were made in the acetyl lysine binding pockets. To validate this approach, a double residue mutant tandem domain protein was produced for each of the BET family members. Utilising a Fluorescence Polarisation approach, binding affinities for each of the single and double mutants for Reference Compound X were determined. […] The affinities of the single mutated bromdomain tandem proteins for Reference Compound X were equi-potent with the corresponding non-mutated BET protein. […] In the TR-FRET competition assay, Reference Compound X is used at a concentration that is equivalent to the Kd for the non-mutated bromodomain, which ensures that no binding at the mutated bromodomain is detected.
(§4) Recombinant Human Bromodomains [(BRD2 (1-473) (Y113A) and (Y386A), BRD3 (1-435) (Y73A) and (Y348A) BRD4 (1-477) (Y97A) and (Y390A) and BRDT (1-397) (Y66A) and (Y309A)] were expressed in E. coli cells (in pET15b vector for BRD2/3/4 and in pET28a vector for BRDT) with a 6-His tag at the N-terminal. The His-tagged Bromodomain pellet was resuspended in 50 mM HEPES (pH 7.5), 300 mM NaCl, 10 mM imidazole & 1 μL/mL protease inhibitor cocktail and extracted from the E. coli cells using sonication and purified using a nickel sepharose high performance column, the proteins were washed and then eluted with a linear gradient of 0-500 mM imidazole with buffer 50 mM HEPES (pH 7.5), 150 mM NaCl, 500 mM imidazole, over 20 column volumes. Final purification was completed by Superdex 200 prep grade size exclusion column. Purified protein was stored at −80° C. in 20 mM HEPES pH 7.5 and 100 mM NaCl. Protein identity was confirmed by peptide mass fingerprinting and predicted molecular weight confirmed by mass spectrometry.
All assay components were dissolved in an assay buffer composing of 50 mM HEPES pH 7.4, 50 mM NaCl, 5% Glycerol, 1 mM DTT and 1 mM CHAPS. Reference Compound X was diluted, in assay buffer containing 20 nM single mutant, tandem bromodomain protein, to a concentration equivalent to 2*Kd for this bromodomain. […]

BRD4 BD1 and BRD4 BD2 = BRD4 BD1 and BRD4 BD2 TR-FRET assays (selectivity for BRD4 BD2 over BRD4 BD1); type: binding, Human; settings: for selectivity for BRD4 BD2 over BRD4 BD1: BRD4 BD2 pIC50 − BRD4 BD1 pIC50, in at least one of the TR-FRET assays
Description: as §1, §2, §3
as §4, with “Protein identity was confirmed by peptide mass fingerprinting and predicted molecular weight confirmed by mass spectrometry.” left out

[1] = tested on: BET family (BRD2, BRD3, BRD4 and BRDT) tandem bromodomain proteins; assay: Fluorescence Polarisation binding of Reference Compound X to single and double mutant tandem BET proteins; set-up: species or system Human; settings: single residue (Tyr to Ala) mutants
Description: as §3, with “detected. […]” for “detected.”

Row | IC50 (BRD4 BD2) | Structure (SMILES) | selectivity for BRD4 BD2 over BRD4 BD1 (BRD4 BD1 and BRD4 BD2) | affinity of single mutated bromodomain tandem proteins compared with corresponding non-mutated BET protein [1] | fold selective for BRD4 BD2 over BRD4 BD1 (BRD4 BD1 and BRD4 BD2; from the pIC50 difference)
1 | 20 nM | CNC(=O)c1cc(C(=O)Nc2cn[nH]c2)cc(Cc2ccccc2)n1 [Example 12, 6-Benzyl-N^2-methyl-N^4-(1H-pyrazol-4-yl)pyridine-2,4-dicarboxamide] | 2.7 log unit | – | –
2 | 1000 to 10000 nM | CNC(=O)c1cc(C(=O)Nc2nnc(C)o2)cc([C@@H](C)c2ccccc2)n1 [Example 75, (S)-N^2-Methyl-N^4-(5-methyl-1,3,4-oxadiazol-2-yl)-6-(1-phenylethyl)pyridine-2,4-dicarboxamide] | – | – | –
3 | 1000 to 10000 nM | CNC(=O)c1cc(C(=O)Nc2nc(C)no2)cc([C@@H](C)c2ccccc2)n1 [Example 74, (S)-N^2-Methyl-N^4-(3-methyl-1,2,4-oxadiazol-5-yl)-6-(1-phenylethyl)pyridine-2,4-dicarboxamide] | – | – | –
4 | – | COc1ccc2c(c1)C(c1ccc(Cl)cc1)=N[C@@H](CC(=O)NCCCCCNC(=O)CCCCCC1(C)/C(=C/C=C/C=C/C3=[N+](CCCCS(=O)(=O)O)c4ccc(S(=O)(=O)O)cc4C3(C)C)N(CCCCS(=O)(=O)[O-])c3ccc(S(=O)(=O)O)cc31)c1nnc(C)n1-2 (stereo partly shown) [Reference Compound X] | – | equi-potent | –
5 | 1000 to 10000 nM | CNC(=O)c1cc(C(=O)NC(C)(C)C)cc(Cc2ccccc2)n1 [Example 66, 6-Benzyl-N^4-(tert-butyl)-N^2-methylpyridine-2,4-dicarboxamide] | – | – | –
6 | 20 nM | CNC(=O)c1cc(C(=O)Nc2cn[nH]c2)cc(C(OC)c2ccccc2)n1 (single isomer, unassigned) [Example 55, (S*)-6-(Methoxy(phenyl)methyl)-N^2-methyl-N^4-(1H-pyrazol-4-yl)pyridine-2,4-dicarboxamide] | 2.7 log unit | – | –
7 | 1000 to 10000 nM | CNC(=O)c1cc(C(=O)NCCOC)cc(Cc2cccc(OC)c2)n1 [Example 59, 6-(3-Methoxybenzyl)-N^4-(2-methoxyethyl)-N^2-methylpyridine-2,4-dicarboxamide] | – | – | –
8 | 1000 to 10000 nM | CNC(=O)c1cc(C(=O)Nc2nncn2C)cc([C@@H](C)c2ccccc2)n1 [Example 76, (S)-N^2-Methyl-N^4-(4-methyl-4H-1,2,4-triazol-3-yl)-6-(1-phenylethyl)pyridine-2,4-dicarboxamide] | – | – | –
9 | 1000 to 10000 nM | CNC(=O)c1cc(C(=O)NCC(C)O)cc(Cc2ccccc2)n1 (racemic) [Example 61, (+/−)-6-Benzyl-N^4-(2-hydroxypropyl)-N^2-methylpyridine-2,4-dicarboxamide] | – | – | –
10 | 15.8 nM | CNC(=O)c1cc(C(=O)Nc2cnn(C)c2)cc(Cc2ccccc2)n1 [Example 11, 6-Benzyl-N^2-methyl-N^4-(1-methyl-1H-pyrazol-4-yl)pyridine-2,4-dicarboxamide] | 2.7 log unit | – | –
11 | 10 nM | CNC(=O)c1cc(C(=O)Nc2cn[nH]c2)cc([C@@H](C)c2ccccc2)n1 [Example 16, (S)-N^2-Methyl-6-(1-phenylethyl)-N^4-(1H-pyrazol-4-yl)pyridine-2,4-dicarboxamide] | 3.0 log unit | – | 1000 fold
